System: α-HCoV 229E, β-HCoV OC43, MERS-CoV, SARS-CoV, SARS-CoV-2 variants (Delta, BA.2)
Type: cell-based
Settings: read-out: EC50 against all tested variants

C#CCn1c(C)c(-n2nnc3ccccc32)c(=O)n(-c2cncc3ccccc23)c1=O [AVI-4516]
EC50: < 3 µM

— PMC12017303 (Science Advances, 2025)
